This assay has as its system P388 leukemia ip, CD2F1 mice, survival T/C. The experiment in a line: NCI In Vivo Anticancer Drug Screen. Data for tumor model P388 Leukemia (intraperitoneal) in CD2F1 (CDF1) mice. The note with it: endpoint: median survival time, higher = longer survival. The method, boiled down: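 Mice carrying the transplanted tumor received test compound or vehicle. Survival was recorded in each group, and the value is the treated-group measurement divided by that of the vehicle-treated control group.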

Where [1] appears, read: dose: 50.0 mg/kg/injection, schedule: Q01DX005 (ip), vehicle: Klucel (hydroxypropylcellulose) (HPC).
Setting [2] is: dose: 50.0 mg/kg/injection, schedule: Q01DX009 (ip), vehicle: saline.
The mark [3] stands for this setting: dose: 100.0 mg/kg/injection, schedule: Q01DX009 (ip), vehicle: saline.
Setting [4] is: dose: 200.0 mg/kg/injection, schedule: Q01DX009 (ip), vehicle: saline.
[5] abbreviates: dose: 50.0 mg/kg/injection, schedule: Q01DX005 (ip), vehicle: saline.
The mark [6] stands for this setting: dose: 100.0 mg/kg/injection, schedule: Q01DX005 (ip), vehicle: saline.
[7] abbreviates: dose: 50.0 mg/kg/injection, schedule: Q01DX005 (ip), vehicle: saline with Tween-80.
[8] abbreviates: dose: 100.0 mg/kg/injection, schedule: Q01DX005 (ip), vehicle: saline with Tween-80.
[9] abbreviates: dose: 200.0 mg/kg/injection, schedule: Q01DX005 (ip), vehicle: saline with Tween-80.
Setting [10] is: dose: 100.0 mg/kg/injection, schedule: Q04DX003 (ip), vehicle: saline with Tween-80.
Setting [11] is: dose: 200.0 mg/kg/injection, schedule: Q04DX003 (ip), vehicle: saline with Tween-80.
Where [12] appears, read: dose: 100.0 mg/kg/injection, schedule: Q04DX003 (ip), vehicle: saline.
The mark [13] stands for this setting: dose: 200.0 mg/kg/injection, schedule: Q04DX003 (ip), vehicle: saline.
The mark [14] stands for this setting: dose: 50.0 mg/kg/injection, schedule: Q01DX009 (ip), vehicle: Klucel (hydroxypropylcellulose) (HPC).
Where [15] appears, read: dose: 100.0 mg/kg/injection, schedule: Q01DX009 (ip), vehicle: Klucel (hydroxypropylcellulose) (HPC).
Where [16] appears, read: dose: 200.0 mg/kg/injection, schedule: Q01DX009 (ip), vehicle: Klucel (hydroxypropylcellulose) (HPC).

Values joined by “and” are separate entries in the source; they are usually repeats but may differ in a detail not shown here. Identical values can stand only once. Inconclusive results and toxic doses are left out.

For `S=c1oc(-c2ccc3c(c2)OCO3)nn1CN1CCN(Cn2nc(-c3ccc4c(c3)OCO4)oc2=S)CC1`, the T/C under setting [1] was 96 % of control; the T/C (dose: 100.0 mg/kg/injection, schedule: Q01DX005 (ip), vehicle: Klucel (hydroxypropylcellulose) (HPC)) is 96 % of control; the T/C (dose: 200.0 mg/kg/injection, schedule: Q01DX005 (ip), vehicle: Klucel (hydroxypropylcellulose) (HPC)) was 93 % of control.
On to `N#CN`, for which the T/C is 103 % of control (dose: 12.5 mg/kg/injection, schedule: Q01DX009 (ip), vehicle: suspension in saline); 97 % of control (dose: 25.0 mg/kg/injection, schedule: Q01DX009 (ip), vehicle: suspension in saline); 91 % of control and 103 % of control under setting [2]; 107 % of control (dose: 50.0 mg/kg/injection, schedule: Q01DX009 (ip), vehicle: suspension in saline); 101 % of control and 106 % of control under setting [3]; 102 % of control under setting [4].
Consider `CC1OCOC(CO)C(O)C1O` (stereo unspecified), for which the T/C under setting [5] was 101 % of control; the T/C under setting [6] is 105 % of control; the T/C (dose: 200.0 mg/kg/injection, schedule: Q01DX005 (ip), vehicle: saline) is 105 % of control.
With `CC(C)CC([N+](C)(C)C)P(=O)([O-])O` (stereo unspecified), the T/C reads like this: under setting [3], 100 % of control; under setting [4], 95 % of control; (dose: 400.0 mg/kg/injection, schedule: Q01DX009 (ip), vehicle: saline) 100 % of control.
On to `CC(=O)OC1C(=C(Br)Br)C(COC(=O)c2ccccc2)OC1n1cnc2c(NC(=O)c3ccccc3)ncnc21` (stereo unspecified), for which the T/C was 98 % of control (dose: 100.0 mg/kg/injection, schedule: Q01DX001 (ip), vehicle: saline with Tween-80); 90 % of control (dose: 200.0 mg/kg/injection, schedule: Q01DX001 (ip), vehicle: saline with Tween-80); 92 % of control (dose: 400.0 mg/kg/injection, schedule: Q01DX001 (ip), vehicle: saline with Tween-80).
For the compound `[O-]c1ccc[n+]2c1sc1ncccc12` (tested in a mixture with another compound), the T/C was 107 % of control under setting [7], 107 % of control under setting [8] and 105 % of control under setting [9].
Turning to `CCOC(OCC)c1ccc(C)cc1`, the T/C is 103 % of control under setting [10]; 108 % of control under setting [11]; 97 % of control (dose: 400.0 mg/kg/injection, schedule: Q04DX003 (ip), vehicle: saline with Tween-80).
On to `COC1NC(=O)NC(=O)C1=[N+]=[N-]` (stereo unspecified), for which the T/C reads like this: (dose: 2.5 mg/kg/injection, schedule: Q01DX009 (ip), vehicle: saline) 168 % of control; (dose: 5.0 mg/kg/injection, schedule: Q01DX009 (ip), vehicle: saline sonified) 163 % of control; (dose: 5.0 mg/kg/injection, schedule: Q01DX009 (ip), vehicle: saline with Tween-80) 154 % of control; (dose: 7.5 mg/kg/injection, schedule: Q01DX009 (ip), vehicle: saline with Tween-80) 191 % of control; (dose: 10.0 mg/kg/injection, schedule: Q01DX009 (ip), vehicle: saline sonified) 159 % of control; (dose: 75.0 micrograms/kg/injection, schedule: Q01DX009 (ip), vehicle: saline) 109 % of control. For the same compound, the T/C (dose: 150.0 micrograms/kg/injection, schedule: Q01DX009 (ip), vehicle: saline) was 113 % of control.
For `N=C(N)c1ccc(/C=C/c2ccc(C(=N)N)cc2O)cc1`, the T/C by setting is: (dose: 12.5 mg/kg/injection, schedule: Q01DX009 (ip), vehicle: water) 111 % of control; (dose: 22.0 mg/kg/injection, schedule: Q01DX009 (ip), vehicle: water) 120 % of control; (dose: 25.0 mg/kg/injection, schedule: Q01DX009 (ip), vehicle: water) 120 % of control.
With `CSc1ncnc2sc(NN)nc12`, the T/C is 94 % of control (dose: 100.0 mg/kg/injection, schedule: Q01DX001 (ip), vehicle: distilled water + alcohol); 94 % of control (dose: 200.0 mg/kg/injection, schedule: Q01DX001 (ip), vehicle: distilled water + alcohol); 102 % of control (dose: 400.0 mg/kg/injection, schedule: Q01DX001 (ip), vehicle: distilled water + alcohol).
For the compound `CCCCN=Cc1ccccc1O.CCCCN=Cc1ccccc1O.[Cu]`, the T/C under setting [1] is 99 % of control.
As for `CCCCN(CCNc1cc(OC)cc2cccnc12)C(C)CC` (stereo unspecified), the T/C reads like this: (dose: 12.5 mg/kg/injection, schedule: Q01DX005 (ip), vehicle: saline) 112 % of control; (dose: 25.0 mg/kg/injection, schedule: Q01DX005 (ip), vehicle: saline) 119 % of control; under setting [5], 98 % of control and 104 % of control.
Take `CC(/C=C/c1ccc2c(c1)OCO2)=N\NC(N)=O`: the T/C is, setting by setting: under setting [7], 100 % of control; under setting [8], 97 % of control; under setting [9], 95 % of control.
Regarding `CS(=O)(=O)Nc1ccc(Nc2c3ccccc3nc3cc(Cl)ccc23)cc1`, the T/C runs as follows: under setting [12], 181 % of control; under setting [13], 240 % of control.
For the compound `CCN(CC)CCNc1c2ccc(Cl)cc2nc2ccc(OC)nc12`, the T/C runs as follows: under setting [14], 114 % of control; under setting [15], 111 % of control; under setting [16], 117 % of control.
In the case of `CN(C)P1(=S)OCC(C(C)(C)C)CN1C` (stereo unspecified), the T/C reads like this: under setting [10], 102 % of control; under setting [11], 112 % of control.
Turning to `Cc1c(Cl)cccc1N=Cc1cccs1`, the T/C runs as follows: under setting [14], 105 % of control; under setting [15], 105 % of control; under setting [16], 105 % of control.
As to `C[C@]12CCCC[C@@H]1CC[C@@H]1[C@@H]2[C@@H](O)C[C@]2(C)[C@@H](O)CC[C@@H]12`, the T/C runs as follows: under setting [10], 91 % of control; under setting [11], 100 % of control.
`Cc1ccc(NC(=S)N/N=C\c2nc3ccccc3c3ccccc23)cc1`: the T/C is 98 % of control (dose: 100.0 mg/kg/injection, schedule: Q04DX002 (ip), vehicle: Klucel (hydroxypropylcellulose) (HPC)); 92 % of control (dose: 200.0 mg/kg/injection, schedule: Q04DX002 (ip), vehicle: Klucel (hydroxypropylcellulose) (HPC)); 93 % of control (dose: 400.0 mg/kg/injection, schedule: Q04DX002 (ip), vehicle: Klucel (hydroxypropylcellulose) (HPC)).
As to `CCC(O)(C(=O)O)c1ccccc1` (stereo unspecified), the T/C runs as follows: (dose: 25.0 mg/kg/injection, schedule: Q04DX003 (ip), vehicle: saline) 105 % of control; (dose: 50.0 mg/kg/injection, schedule: Q04DX003 (ip), vehicle: saline) 97 % of control; under setting [12], 94 % of control; under setting [13], 100 % of control.
Regarding `COc1cccc(/C=C2\CCc3ccccc3C2=O)c1`, the T/C under setting [14] is 100 % of control, the T/C under setting [15] is 99 % of control and the T/C under setting [16] is 106 % of control.
`O=C1N[C@H]2CS(=O)(=O)C[C@H]2N1`: the T/C was 100 % of control under setting [7], 104 % of control under setting [8] and 93 % of control under setting [9].
Consider `Cc1nc2nc(=S)[nH]c(N)c2nc1C`, for which the T/C is, setting by setting: (dose: 12.5 mg/kg/injection, schedule: Q01DX009 (ip), vehicle: saline) 103 % of control; (dose: 25.0 mg/kg/injection, schedule: Q01DX009 (ip), vehicle: saline) 95 % of control; under setting [2], 95 % of control; under setting [3], 100 % of control.
`COC(=O)C(N)C(C)C` (stereo unspecified): the T/C runs as follows: under setting [5], 100 % of control; under setting [6], 92 % of control.
As to `CC(C)CCN(CCC(C)C)CC(O)c1cc2c(c3ccccc13)CCCC2` (stereo unspecified), the T/C was 96 % of control (dose: 12.5 mg/kg/injection, schedule: Q01DX005 (ip), vehicle: saline with Tween-80); 93 % of control (dose: 25.0 mg/kg/injection, schedule: Q01DX005 (ip), vehicle: saline with Tween-80); 103 % of control and 93 % of control under setting [7]; 113 % of control under setting [8]; 108 % of control under setting [9].
For `COC(=O)c1c(-c2ccccc2)c(C=O)n(C)c1C`, the T/C reads like this: under setting [7], 99 % of control; under setting [8], 98 % of control; under setting [9], 91 % of control.
Consider `O=c1[nH]c2c(ccc3ccc[n+]([O-])c32)c2c1CCC2`, for which the T/C runs as follows: (dose: 100.0 mg/kg/injection, schedule: Q04DX002 (ip), vehicle: saline) 100 % of control; (dose: 200.0 mg/kg/injection, schedule: Q04DX002 (ip), vehicle: saline) 90 % of control; (dose: 400.0 mg/kg/injection, schedule: Q04DX002 (ip), vehicle: saline) 100 % of control.

The values above are taken from PubChem BioAssay AID330 (DTP/NCI, 2004).
